Laboratory results taken from ChEMBL document CHEMBL5608215, “Development of amphipathic derivatives of thymol and carvacrol as potent broad-spectrum antibacterial agents” (Eur J Med Chem, 2024).
Converted amounts (≈) assume the structure as drawn. The source made the active and inactive calls. No cut-off for these calls is given here.

Experiments:
Type in all cases: functional
[1] = tested on: Staphylococcus aureus; assay: Inhibition of antibiotic-resistance in Staphylococcus aureus ATCC29213 at 0.5 times of MIC incubated for 20 days; settings: time 20.0 day
[2] = tested on: Staphylococcus aureus; assay: Antibacterial activity against methicillin-resistant Staphylococcus aureus 21-5 by CLSI based serial dilution method
[3] = tested on: Escherichia coli; assay: Antibacterial activity against Escherichia coli ATCC25922 by CLSI based serial dilution method
[4] = tested on: Enterococcus; assay: Antibacterial activity against vancomycin-resistant Enterococcus ATCC51299 by CLSI based serial dilution method
[5] = tested on: Pseudomonas aeruginosa; assay: Antibacterial activity against Pseudomonas aeruginosa ATCC27853 by CLSI based serial dilution method
[6] = tested on: Enterococcus faecalis; assay: Antibacterial activity against Enterococcus faecalis ATCC29212 by CLSI based serial dilution method
[7] = tested on: Staphylococcus aureus; assay: Antibacterial activity against Staphylococcus aureus ATCC29213 by CLSI based serial dilution method

| SMILES | inhibition [1] | MIC [2] | MIC [3] | MIC [4] | MIC [5] | MIC [6] | MIC [7] |
| --- | --- | --- | --- | --- | --- | --- | --- |
| CCn1cc(C(=O)O)c(=O)c2cc(F)c(N3CCNCC3)cc21 | inactive | – | – | – | – | – | – |
| CCCCCCCNC(=O)C[N+](C)(C)CCCCCOc1cc(C(C)C)ccc1C.[Br-] | – | 4 µg/mL | 4 µg/mL | 2 µg/mL | 8 µg/mL | 1 µg/mL | 1 µg/mL |
| CCCCCCN(CCCCCC)C(=O)C[N+](C)(C)CCCOc1cc(C(C)C)ccc1C.[Br-] | – | 8 µg/mL | 4 µg/mL | 1 µg/mL | 16 µg/mL | 0.25 µg/mL | 0.25 µg/mL |
| Cc1ccc(C(C)C)cc1OCCCC[N+](C)(C)CC(=O)N1CCSCC1.[Br-] | – | 64 µg/mL | 128 µg/mL | 128 µg/mL | > 128 µg/mL | 64 µg/mL | 32 µg/mL |
| CCCCCCN(CCCCCC)C(=O)C[N+](C)(C)CCCOc1cc(C)ccc1C(C)C.[Br-] | – | > 128 µg/mL | 128 µg/mL | 32 µg/mL | > 128 µg/mL | 16 µg/mL | 16 µg/mL |
| Cc1ccc(C(C)C)cc1OCCCCC[N+](C)(C)CC(=O)N(CC(C)C)CC(C)C.[Br-] | – | 4 µg/mL | 32 µg/mL | 64 µg/mL | 64 µg/mL | 4 µg/mL | 2 µg/mL |
| CCCCCCN(CCCCCC)C(=O)C[N+](C)(C)CCCCOc1cc(C)ccc1C(C)C.[Br-] | – | > 128 µg/mL | > 128 µg/mL | > 128 µg/mL | > 128 µg/mL | > 128 µg/mL | > 128 µg/mL |
| CCCNC(=O)C[N+](C)(C)CCCCOc1cc(C)ccc1C(C)C.[Br-] | – | 128 µg/mL | > 128 µg/mL | > 128 µg/mL | > 128 µg/mL | 128 µg/mL | 64 µg/mL |
| Cc1ccc(C(C)C)c(OCCCCC[N+](C)(C)CC(=O)N2CCOCC2)c1.[Br-] | – | > 128 µg/mL | > 128 µg/mL | > 128 µg/mL | > 128 µg/mL | 128 µg/mL | 128 µg/mL |
| CCCN(CCC)C(=O)C[N+](C)(C)CCCOc1cc(C)ccc1C(C)C.[Br-] | – | 16 µg/mL | 128 µg/mL | 128 µg/mL | > 128 µg/mL | 32 µg/mL | 16 µg/mL |
| Cc1ccc(C(C)C)c(OCCC[N+](C)(C)CC(=O)N2CCSCC2)c1.[Br-] | – | 64 µg/mL | > 128 µg/mL | > 128 µg/mL | > 128 µg/mL | 128 µg/mL | 64 µg/mL |
| Cc1ccc(C(C)C)cc1OCCCCC[N+](C)(C)CC(=O)N1CCSCC1.[Br-] | – | 128 µg/mL | 128 µg/mL | 64 µg/mL | > 128 µg/mL | 32 µg/mL | 32 µg/mL |
| CCCCCCCNC(=O)C[N+](C)(C)CCCOc1cc(C(C)C)ccc1C.[Br-] | – | 16 µg/mL | 8 µg/mL | 4 µg/mL | 16 µg/mL | 2 µg/mL | 2 µg/mL |
| Cc1ccc(C(C)C)c(OCCCC[N+](C)(C)CC(=O)N2CCOCC2)c1.[Br-] | – | > 128 µg/mL | > 128 µg/mL | > 128 µg/mL | > 128 µg/mL | > 128 µg/mL | > 128 µg/mL |
| CCCCN(CCCC)C(=O)C[N+](C)(C)CCCCOc1cc(C)ccc1C(C)C.[Br-] | – | 2 µg/mL | 128 µg/mL | 8 µg/mL | > 128 µg/mL | 8 µg/mL | 2 µg/mL |
| Cc1ccc(C(C)C)cc1OCCC[N+](C)(C)CC(=O)N1CCOCC1.[Br-] | – | > 128 µg/mL | > 128 µg/mL | > 128 µg/mL | > 128 µg/mL | 128 µg/mL | 128 µg/mL |
| Cc1ccc(C(C)C)cc1OCCCCC[N+](C)(C)CC(=O)N(C(C)C)C(C)C.[Br-] | – | 8 µg/mL | 64 µg/mL | 8 µg/mL | > 128 µg/mL | 8 µg/mL | 4 µg/mL |
| Cc1ccc(C(C)C)cc1OCCC[N+](C)(C)CC(=O)N1CCSCC1.[Br-] | – | 128 µg/mL | 128 µg/mL | > 128 µg/mL | > 128 µg/mL | 64 µg/mL | 64 µg/mL |
| CCCCCCCNC(=O)C[N+](C)(C)CCCCOc1cc(C(C)C)ccc1C.[Br-] | – | 16 µg/mL | 4 µg/mL | 4 µg/mL | 16 µg/mL | 2 µg/mL | 1 µg/mL |
| Cc1ccc(C(C)C)c(OCCC[N+](C)(C)CC(=O)N(CC(C)C)CC(C)C)c1.[Br-] | – | 8 µg/mL | 64 µg/mL | 16 µg/mL | > 128 µg/mL | 8 µg/mL | 4 µg/mL |
| Cc1ccc(C(C)C)cc1OCCCC[N+](C)(C)CC(=O)N(C(C)C)C(C)C.[Br-] | – | 16 µg/mL | 128 µg/mL | 32 µg/mL | > 128 µg/mL | 16 µg/mL | 8 µg/mL |
| CCCN(CCC)C(=O)C[N+](C)(C)CCCCCOc1cc(C)ccc1C(C)C.[Br-] | – | 8 µg/mL | 64 µg/mL | 16 µg/mL | > 128 µg/mL | 8 µg/mL | 8 µg/mL |
| Cc1ccc(C(C)C)cc1OCCCCC[N+](C)(C)CC(=O)N1CCOCC1.[Br-] | – | 128 µg/mL | > 128 µg/mL | > 128 µg/mL | > 128 µg/mL | 128 µg/mL | 128 µg/mL |
| CCCCNC(=O)C[N+](C)(C)CCCCCOc1cc(C)ccc1C(C)C.[Br-] | – | 16 µg/mL | 64 µg/mL | 64 µg/mL | > 128 µg/mL | 16 µg/mL | 8 µg/mL |
| CCCCNC(=O)C[N+](C)(C)CCCOc1cc(C(C)C)ccc1C.[Br-] | – | 64 µg/mL | 64 µg/mL | 64 µg/mL | > 128 µg/mL | 32 µg/mL | 32 µg/mL |
| Cc1ccc(C(C)C)cc1O [CARVACROL] | – | > 128 µg/mL | 128 µg/mL (≈ 852 µM) | > 128 µg/mL | > 128 µg/mL | 128 µg/mL (≈ 852 µM) | > 128 µg/mL |
| CCCCCNC(=O)C[N+](C)(C)CCCOc1cc(C)ccc1C(C)C.[Br-] | – | 16 µg/mL | 32 µg/mL | 32 µg/mL | > 128 µg/mL | 16 µg/mL | 8 µg/mL |
| CCCCNC(=O)C[N+](C)(C)CCCOc1cc(C)ccc1C(C)C.[Br-] | – | 32 µg/mL | 128 µg/mL | 128 µg/mL | > 128 µg/mL | 64 µg/mL | 32 µg/mL |
| CC1(C)S[C@@H]2[C@H](NC(=O)[C@H](N)c3ccccc3)C(=O)N2[C@H]1C(=O)O [AMPICILLIN] | – | 64 µg/mL (≈ 183 µM) | 4 µg/mL (≈ 11.4 µM) | 16 µg/mL (≈ 45.8 µM) | > 128 µg/mL | 0.5 µg/mL (≈ 1.43 µM) | 0.5 µg/mL (≈ 1.43 µM) |
| Cc1ccc(C(C)C)c(O)c1 [THYMOL] | – | > 128 µg/mL | 128 µg/mL (≈ 852 µM) | > 128 µg/mL | > 128 µg/mL | > 128 µg/mL | > 128 µg/mL |
